Two compounds from US20250127777A1, “DUAL INHIBITION OF MDM2 AND EIF2-ALPHA INDUCES CELL DEATH IN MULTIPLE CANCER CELL TYPES” (The Regents of the University of Colorado, A Body Corporate, priority 2022, published 2025) can be followed below.

The subject of test [1] is TPC1 cells. In words: RNA-seq transcriptome analysis (DESeq2). In kind it is cell-based, Human. The note with it: nutlin 10 μM, GSK2830371 25 μM, or both, 24 hours. As to the method:
(§1) TPC1 and K1 cells were plated at 2*104/cm2 and treated for 24 hours as indicated. Following the treatment period, cells were washed with ice-cold PBS and lysed in TRI Reagent (Millipore Sigma). Quality of the extracted RNA was assessed by Agilent Bioanalyzer 2100 using RNA 6000 Pico chips (Agilent). Single-end 150 bp sequencing of the poly-A (+)-enriched RNA was carried out on the Illumina HiSeq 4000 platform by the Genomics Core facility at the University of Colorado Anschutz.
(§2) Quality of the sequencing data was analyzed using FASTQC (version 0.11.2, available at the website www.bioinformatics.babraham.ac.uk/projects/fastqc and presence of common sequencing contaminants was assessed by FastQ Screen (v0.4.4) available at the website www.bioinformatics.babraham.ac.uk/projects/fastq_screen/. Bases with low quality (Q<10) were 3′ end trimmed and reads shorter than 30 nt were discarded using the Fastx toolkit (v0.0.13.2). Reads were aligned to a GRCh37/hg19 Human reference using TopHat2 (v2.0.13,-b2-sensitive-keep-fasta-order-no-coverage-search-max-multihits 10-library-type fr-firststrand) (Kim et al., 2013) with the UCSC hg19 GTF annotation file provided in the iGenomes UCSC hg19 bundle available at the website: support.illumina.com/sequencing/sequencing_software/igenome.html. Aligned reads with MAPQ<10 quality were removed using SAMtools (v0.1.19). Alignments were then sorted by coordinates, and duplicates were identified using Picard (v1.129). Quality assessment of final mapped reads was conducted using RSeQC (v2.6) (Wang et al., 2012). Gene-level counts were obtained using HTSeq (v0.6.1) (Anders et al., 2015) with the following options (-stranded=reverse -minaqual=10-type=exon-idattr=gene_id_mode=intersection-nonempty) using the iGenomes UCSC hg19 GTF annotation file. Differential gene expression was evaluated using DESeq2 (version 1.6.3) (Love et al., 2014) in R (version 3.1.0), using q<0.05 (FDR<5%) and fold-change>1.5 (Up) or <1/1.5 (Down) as cutoffs for differentially expressed genes. Genome browser snapshots were generated from bedGraph or tgv files using IGV genome viewer (v2.8.10) (Thorvaldsdottir et al., 2013).

Test [2] has as its system K1 cells. In words: RNA-seq transcriptome analysis (DESeq2). In kind it is cell-based, Human. The note with it: nutlin 10 μM, GSK2830371 25 μM, or both, 24 hours. As to the method:
as §1, §2

The test system of another test is PPM1D. As to the kind of experiment: Western blot of PPM1D expression. In kind it is cell-based. To be noted: 25 μM GSK2830371; 24 hours. The method, then:
(§3) Protein samples were prepared with cells washed twice with PBS and lysed in modified Laemmli buffer (Laemmli, 1970) (1% w/v SDS, 10% w/v glycerol, 100 mM Tris pH 7.2, protease (complete Mini, Roche) and phosphatase (PhosSTOP, Roche) inhibitors). Following a brief sonication (2.5W, 5 sec) and heat denaturation (90° C., 5 min), total protein concentration in whole cell lysates was measured by a BCA Protein Assay Kit (Pierce, Thermo Fisher Scientific). 20 μg of protein per sample was resolved by SDS-PAGE and transferred onto a 0.45 μm PVDF membrane (0.2 μm for ATF3 detection). Membranes were incubated in blocking buffer (5% fat-free milk in wash buffer—20 mM Tris pH 7.6, 150 mM NaCl, 0.2% Tween 20) for an hour at RT and o/n at 4° C. with the primary antibody diluted in a fresh blocking buffer. Next day membranes were washed three times for 10 min in the wash buffer, incubated with HRP-conjugated secondary antibody for an hour at RT, and washed again three times in the wash buffer. SuperSignal West Pico Plus Chemiluminescence Substrate (Pierce) was used for detection and digital images were acquired using an ImageQuant LAS 4000 (GE Healthcare Life Sciences).

For test [3], the system named is TPC1 cells. As to the kind of experiment: Annexin V-FITC/PI apoptosis assay by flow cytometry. In kind it is cell-based. The note with it: 10 μM nutlin-3a, 25 μM GSK2830371, or both, 72 hours. The method, then:
(§4) TPC1, K1, HCT116, MCF7, SJSA, and HEK293FT cells were cultivated in RPMI (TPC1, SJSA), DMEM (K1, MCF7, HEK293FT), and McCoy's (HCT116) media (Gibco, Thermo Fisher Scientific) supplemented with 10% fetal bovine serum (Peak Serum) and 1% antibiotic-antimycotic mixture (Gibco). Cells were plated a day before the treatment and maintained in a humidified atmosphere with 5% of CO2 at 37° C. Both TPC1 and K1 lines were gifts from Dr. Rebecca Schweppe, University of Colorado Anschutz Medical Campus (CU-AMC). Cell line identity has been verified by short tandem repeats profiling at the Cell Technologies Shared Resource, CU-AMC. Colorectal cancer organoid cultures (CRC172) were obtained from the Enteroid Stem Cell Core facility at CU-AMC.
(§5) The fraction of apoptotic cells was determined by Annexin V-FITC/PI assay. Briefly, cells harvested by trypsinization were resuspended in Annexin-V binding buffer (10 mM HEPES pH 7.4, 140 mM NaCl, 2.5 mM CaCl2)). Approximately 2*10^5 cells were labeled with Annexin-V-FITC (Invitrogen) and PI (10 μg/ml, Millipore-Sigma) for 15 minutes in the dark before flow cytometric analysis (Accuri C6, Becton Dickinson). To analyze mitochondrial membrane potential (44m) cells were trypsinized and resuspended in cultivation media. An aliquot of approximately 5*10^5 cells per sample was mixed with tetramethylrhodamine, ethyl ester, perchlorate (TMRE, Thermo Fisher, 100 nM final concentration) solution, incubated for 10 minutes in the dark, and analyzed by flow cytometer.

For test [4], the system named is K1 cells. The test is described as above. In kind it is cell-based. To be noted: 10 μM nutlin-3a, 25 μM GSK2830371, or both, 72 hours. The method, then:
as §4, §5

A further test relates to TPC1 and HCT116. As to the kind of experiment: Polysome profiling (polysome/monosome ratio). In kind it is cell-based. To be noted: 24 hours. The method, then: TPC1 and HCT116 were plated at 6*104/cm2 on 143 cm2 dishes, cultivated o/n, and treated accordingly. Ten minutes before the harvest cultivation media was supplemented with cycloheximide (CHX) at final concentration of 100 μg/ml. Next, cells were washed twice with ice-cold PBS with 100 μg/ml CHX and lysed in polysome preparation lysis buffer (20 mM HEPES pH 7.4, 15 mM MgCl2, 200 mM NaCl, 1% Triton X-100, 100 μg/ml CHX, 2 mM DTT, and 100U SuperaseIN). Lysates were cleared of debris by centrifugation at 20,000g, 4° C. for 10 minutes. Total nucleic acid content in lysates was measured by absorbance at 260 nm and used for sample concentration normalization. Next, 500 μl of the lysate was loaded on 10-60% sucrose gradients in SW41 tubes in lysis buffer lacking Triton X-100. These gradients were prepared using a BioComp system and chilled to 4° C. before use. Samples were ultracentrifuged at 36,000 rpm for 3 hours and 10 min, at 4° C., then samples were fractionated using a BioComp system, monitoring absorbance at 260 nm while collecting fractions of approximately 0.4 ml each.

A further test concerns p53. In words: Western blot of p53 in thyroid carcinoma cells. In kind it is cell-based. The note with it: TPC1 and K1 cells; 10 μM nutlin-3a, 25 μM GSK2830371; 24 hours. As to the method: as §3, with “Following” for “Protein samples were prepared with cells washed twice with PBS and lysed in modified Laemmli buffer (Laemmli, 1970) (1% w/v SDS, 10% w/v glycerol, 100 mM Tris pH 7.2, protease (complete Mini, Roche) and phosphatase (PhosSTOP, Roche) inhibitors). Following”

A further test relates to cell viability. As to the kind of experiment: Cell viability after single-agent treatment. In kind it is cell-based.
The subject of the next test is HCT116 xenograft tumors. As to the kind of experiment: HCT116 xenograft tumor model. In kind it is in vivo. The note with it: nude mice, 200 mg/kg nelfinavir and/or 200 mg/kg milademetan. The method, then: Athymic nude mice (NU/NU) weighting 20 to 30 grams and being 8-12 weeks of age (Charles River Labs) were housed in cages under standard conditions (22° C., 50% relative humidity, 12-h light/dark cycles) and provided with food and water ad libitum. Next, […] exponentially growing HCT116 cells resuspended in 100 μl Matrigel/PBS (5 mg/ml final) were injected subcutaneously into both flanks. Tumors grew for 10-14 days before treatment initiation. Experimental animals were given 200 mg/kg nelfinavir and/or 200 mg/kg Milademetan (Rain Therapeutics) by oral gavage once daily, 5 days a week. Tested compounds were prepared in a mixture of 2% Klucel (hydroxypropyl cellulose), 0.5% Tween 80, and 35% ethanol. Tumor volumes (v) were estimated daily, 5 days a week using caliper measurements and formula v=(I×w^2)/2, where I represents the greatest length of the tumor and w is tumor width in the perpendicular axis. Average volumes of the right and left flank tumors were used for plotting and calculations. Equal ratios of male and female mice were used in treatment groups (5 males and 5 females). All in vivo experiments were approved by the Institutional Animal Care and Use Committee at the CU-AMC (IACUC protocol 00432).
After indicated treatments, cells were washed with PBS, total RNA was extracted using Trizol substitute (38% Phenol, saturated, pH 4.3, 0.8 M guanidine thiocyanate, 0.4 M ammonium thiocyanate, 0.1 M sodium acetate, pH 5.0, 5% glycerol), and converted to cDNA with High-Capacity cDNA Reverse Transcription Kit (Thermo Fisher). Next, diluted cDNA was used in quantitative PCR reaction using SYBR Select Master Mix for CFX (Thermo Fisher). Detected mRNA levels were normalized to 18s rRNA values.
Tumors fixed in 4% formaldehyde were transferred to 70% ethanol and embedded in paraffin at the Pathology Shared Resource-Research Histology, University of Colorado Anschutz Medical Campus. Three tumors from each experimental group were sectioned, stained with DAPI and Ki67 primary antibody using Akoya Opal technology (Akoya Biosciences), and scanned at six representative regions with Vectra 3.0 (Akoya Biosciences) at the Human Immune Monitoring Shared Resource (University of Colorado Anschutz). Next, InForm image analysis software (Akoya Biosciences) was used for automated identification of nuclei based on the DAPI signal. Ki67 nuclear fluorescence was outputted for all nuclei.

A further test has as its system diverse cell types. As to the kind of experiment: Annexin V-FITC/PI apoptosis assay, elF2α plus MDM2 inhibition. In kind it is cell-based. The method, then: as §4
as §5, with “To analyze mitochondrial membrane potential (44m) cells were trypsinized and resuspended in cultivation media.” left out

In another test the test system is ATF3 and ATF4. As to the kind of experiment: Western blot of ATF3 and ATF4 protein. In kind it is cell-based. The note with it: TPC1 cells; nelfinavir alone. The method, then: as §3
(A western blot detects proteins with antibodies after separation by electrophoresis.)

The test system of another test is elF2α. As to the kind of experiment: Western blot of elF2α phosphorylation. In kind it is cell-based. To be noted: 10 μM nutlin-3a, 25 μM GSK2830371, 20 μM nelfinavir; multiple cell lines. The method, then: as §3
A further test concerns caspase 3. As to the kind of experiment: Western blot of caspase 3 cleavage. In kind it is cell-based. To be noted: TPC1 cells; 20 μM nelfinavir, alone or with 10 μM nutlin-3a. The method, then:
as §3, with “Following” for “Protein samples were prepared with cells washed twice with PBS and lysed in modified Laemmli buffer (Laemmli, 1970) (1% w/v SDS, 10% w/v glycerol, 100 mM Tris pH 7.2, protease (complete Mini, Roche) and phosphatase (PhosSTOP, Roche) inhibitors). Following”

Take `Cc1ncc(Cl)cc1NCc1ccc(C(=O)N[C@@H](CC2CCCC2)C(=O)NC2CC2)s1` [GSK2830371]: the “differentially expressed mRNAs versus vehicle” value in the test on TPC1 cells [1] and with K1 cells [2] was “had little impact on the transcriptome” each time. Moreover, in the test with PPM1D, the PPM1D expression entry is on record as “reduces PPM1D expression”. The “apoptosis (Annexin V-FITC/PI)” value in the test with TPC1 cells [3] and in the test on K1 cells [4] was “does not stabilize p53 or induce apoptosis” in each case. Besides, in the test with TPC1 and HCT116, the polysome/monosome ratio entry was “decreases in the polysome/monosome ratio”. Also, in the test on p53, the p53 stabilization result was “does not stabilize p53”. Besides, the “effects on cell viability when administered alone” value with cell viability is “limited effects on cell viability”.
As for `Cc1c(O)cccc1C(=O)N[C@@H](CSc1ccccc1)[C@H](O)CN1C[C@H]2CCCC[C@H]2C[C@H]1C(=O)NC(C)(C)C` [nelfinavir], the “animal survival (Kaplan Meier; humane endpoint tumor size>1000 mm^3)” value in the test with HCT116 xenograft tumors (oral gavage) is given as “had to be sacrificed at the humane endpoint”. For the same compound, in the test on HCT116 xenograft tumors (oral gavage once daily, 5 days a week), the tumor growth entry is reported as “Tumors continued to grow”. In addition, in the test on diverse cell types, the “synergy with small molecule inhibitors of MDM2 to elicit p53-dependent cell death” value is “synergize with small molecule inhibitors of MDM2 to elicit p53-dependent cell death”. In addition, the polysome/monosome ratio result with TPC1 and HCT116 is on record as “decreased the polysome/monosome ratio”. Moreover, the ATF4 protein stabilization entry with ATF3 and ATF4 is on record as “stabilized ATF4”. Moreover, the elF2α phosphorylation entry in the test with elF2α is “induced elF2α phosphorylation”. Further, in the test with caspase 3, the “caspase 3 cleavage / activation” value is recorded as “did not induced caspase 3 cleavage”.
